Laboratory results reported in ChEMBL document CHEMBL5649169 (ChemMedChem, 2018).

Assays:
[1] = target: Mitochondrial carrier homolog 2 (Homo sapiens) (UniProt Q9Y6C9)
[2] = target: Transitional endoplasmic reticulum ATPase (Homo sapiens) (UniProt P55072)
Septin-7 (Homo sapiens) = Septin-7 (Homo sapiens) (UniProt Q16181)
[3] = target: AP-1 complex subunit mu-1 (Homo sapiens) (UniProt Q9BXS5)
[4] = target: Mitogen-activated protein kinase 14 (Homo sapiens) (UniProt Q16539)
[5] = target: CYFIP-related Rac1 interactor B (Homo sapiens) (UniProt Q9NUQ9)
[6] = target: Prelamin-A/C (Homo sapiens) (UniProt P02545)
[7] = target: Prothymosin alpha (Homo sapiens) (UniProt P06454)
Prothymosin alpha (Homo sapiens), sequence (P06454 whole entry): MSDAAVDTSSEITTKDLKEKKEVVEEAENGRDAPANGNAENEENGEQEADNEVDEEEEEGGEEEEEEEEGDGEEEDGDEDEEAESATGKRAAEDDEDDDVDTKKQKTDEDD

[8] = target: Malate dehydrogenase, mitochondrial (Homo sapiens) (UniProt P40926)
[9] = target: Splicing factor 3B subunit 3 (Homo sapiens) (UniProt Q15393)
[10] = target: Polypyrimidine tract-binding protein 1 (Homo sapiens) (UniProt P26599)
[11] = target: Elongation factor 2 (Homo sapiens) (UniProt P13639)
[12] = target: Glutathione S-transferase P (Homo sapiens) (UniProt P09211)
[13] = target: Signal recognition particle subunit SRP68 (Homo sapiens) (UniProt Q9UHB9)
[14] = target: T-complex protein 1 subunit alpha (Homo sapiens) (UniProt P17987)
T-complex protein 1 subunit alpha (Homo sapiens), sequence (P17987 whole entry, one chain of several): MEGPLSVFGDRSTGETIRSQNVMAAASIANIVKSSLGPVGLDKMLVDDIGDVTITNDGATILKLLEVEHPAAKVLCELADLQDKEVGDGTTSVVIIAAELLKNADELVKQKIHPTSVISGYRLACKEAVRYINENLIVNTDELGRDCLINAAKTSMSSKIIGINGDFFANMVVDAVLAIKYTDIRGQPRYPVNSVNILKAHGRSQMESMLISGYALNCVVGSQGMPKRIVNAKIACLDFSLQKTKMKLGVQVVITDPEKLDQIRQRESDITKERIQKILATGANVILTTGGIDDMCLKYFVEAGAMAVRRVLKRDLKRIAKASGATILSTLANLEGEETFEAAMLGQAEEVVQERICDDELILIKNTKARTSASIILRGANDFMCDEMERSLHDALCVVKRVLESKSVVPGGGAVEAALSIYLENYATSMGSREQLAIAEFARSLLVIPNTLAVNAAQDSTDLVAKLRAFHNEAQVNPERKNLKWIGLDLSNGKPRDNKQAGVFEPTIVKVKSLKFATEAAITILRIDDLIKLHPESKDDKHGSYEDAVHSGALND

[15] = target: Coatomer subunit alpha (Homo sapiens) (UniProt P53621)
[16] = target: Nuclear pore complex protein Nup205 (Homo sapiens) (UniProt Q92621)
Nuclear pore complex protein Nup205 (Homo sapiens), sequence (Q92621 whole entry, one chain of several): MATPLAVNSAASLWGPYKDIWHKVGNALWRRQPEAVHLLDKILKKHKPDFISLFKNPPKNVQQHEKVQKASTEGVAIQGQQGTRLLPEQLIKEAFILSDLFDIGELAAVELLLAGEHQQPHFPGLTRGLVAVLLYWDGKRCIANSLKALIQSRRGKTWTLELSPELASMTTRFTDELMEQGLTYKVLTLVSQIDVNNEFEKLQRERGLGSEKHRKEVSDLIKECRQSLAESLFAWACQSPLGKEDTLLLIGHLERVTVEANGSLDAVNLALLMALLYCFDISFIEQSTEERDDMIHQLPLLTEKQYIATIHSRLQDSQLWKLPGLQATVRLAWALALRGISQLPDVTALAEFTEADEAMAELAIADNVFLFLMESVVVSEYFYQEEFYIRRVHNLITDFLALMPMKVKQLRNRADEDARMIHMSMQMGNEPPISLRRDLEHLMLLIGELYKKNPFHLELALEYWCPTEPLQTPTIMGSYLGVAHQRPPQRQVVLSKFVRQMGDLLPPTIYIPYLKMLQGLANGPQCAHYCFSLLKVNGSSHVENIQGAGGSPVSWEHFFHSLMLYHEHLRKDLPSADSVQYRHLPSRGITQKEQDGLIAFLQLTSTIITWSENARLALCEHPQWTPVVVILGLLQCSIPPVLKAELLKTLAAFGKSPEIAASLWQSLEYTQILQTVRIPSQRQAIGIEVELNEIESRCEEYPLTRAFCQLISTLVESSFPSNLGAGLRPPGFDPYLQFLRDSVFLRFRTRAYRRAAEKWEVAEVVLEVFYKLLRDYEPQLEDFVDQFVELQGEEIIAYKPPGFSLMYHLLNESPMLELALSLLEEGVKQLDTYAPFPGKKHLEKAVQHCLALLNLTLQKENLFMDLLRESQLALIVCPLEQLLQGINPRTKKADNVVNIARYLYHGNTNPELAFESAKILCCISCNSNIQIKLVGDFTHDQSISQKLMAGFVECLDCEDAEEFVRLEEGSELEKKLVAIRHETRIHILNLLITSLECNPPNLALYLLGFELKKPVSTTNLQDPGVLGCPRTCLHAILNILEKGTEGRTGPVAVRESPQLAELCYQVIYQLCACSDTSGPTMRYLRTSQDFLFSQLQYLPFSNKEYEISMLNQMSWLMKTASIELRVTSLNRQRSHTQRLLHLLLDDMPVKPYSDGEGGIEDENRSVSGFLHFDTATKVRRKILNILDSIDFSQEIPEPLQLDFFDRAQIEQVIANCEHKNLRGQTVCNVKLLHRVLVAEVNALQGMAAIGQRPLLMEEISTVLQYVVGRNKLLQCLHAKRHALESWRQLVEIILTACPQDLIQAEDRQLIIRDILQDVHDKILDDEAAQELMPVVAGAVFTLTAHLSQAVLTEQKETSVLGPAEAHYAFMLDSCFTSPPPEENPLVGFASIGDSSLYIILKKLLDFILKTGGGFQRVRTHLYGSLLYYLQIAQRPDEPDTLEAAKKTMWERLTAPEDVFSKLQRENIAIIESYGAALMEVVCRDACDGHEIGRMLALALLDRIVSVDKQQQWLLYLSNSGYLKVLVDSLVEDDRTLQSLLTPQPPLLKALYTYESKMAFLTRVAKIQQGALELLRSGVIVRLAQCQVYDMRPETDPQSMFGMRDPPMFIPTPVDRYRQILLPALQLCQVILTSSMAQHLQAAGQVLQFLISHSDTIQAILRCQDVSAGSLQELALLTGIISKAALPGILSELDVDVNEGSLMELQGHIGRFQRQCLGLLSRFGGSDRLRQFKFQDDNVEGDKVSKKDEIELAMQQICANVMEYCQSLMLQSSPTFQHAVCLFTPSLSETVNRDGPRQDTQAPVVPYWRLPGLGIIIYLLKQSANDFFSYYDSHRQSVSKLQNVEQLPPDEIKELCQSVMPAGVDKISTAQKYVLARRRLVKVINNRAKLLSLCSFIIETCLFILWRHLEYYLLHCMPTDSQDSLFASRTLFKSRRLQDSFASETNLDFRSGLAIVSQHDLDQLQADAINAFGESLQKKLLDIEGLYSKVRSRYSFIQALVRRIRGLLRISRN

[17] = target: Bone morphogenetic protein receptor type-1B (Homo sapiens) (UniProt O00238)
[18] = target: Splicing factor, proline- and glutamine-rich (Homo sapiens) (UniProt P23246)
Splicing factor, proline- and glutamine-rich (Homo sapiens), sequence (P23246 whole entry): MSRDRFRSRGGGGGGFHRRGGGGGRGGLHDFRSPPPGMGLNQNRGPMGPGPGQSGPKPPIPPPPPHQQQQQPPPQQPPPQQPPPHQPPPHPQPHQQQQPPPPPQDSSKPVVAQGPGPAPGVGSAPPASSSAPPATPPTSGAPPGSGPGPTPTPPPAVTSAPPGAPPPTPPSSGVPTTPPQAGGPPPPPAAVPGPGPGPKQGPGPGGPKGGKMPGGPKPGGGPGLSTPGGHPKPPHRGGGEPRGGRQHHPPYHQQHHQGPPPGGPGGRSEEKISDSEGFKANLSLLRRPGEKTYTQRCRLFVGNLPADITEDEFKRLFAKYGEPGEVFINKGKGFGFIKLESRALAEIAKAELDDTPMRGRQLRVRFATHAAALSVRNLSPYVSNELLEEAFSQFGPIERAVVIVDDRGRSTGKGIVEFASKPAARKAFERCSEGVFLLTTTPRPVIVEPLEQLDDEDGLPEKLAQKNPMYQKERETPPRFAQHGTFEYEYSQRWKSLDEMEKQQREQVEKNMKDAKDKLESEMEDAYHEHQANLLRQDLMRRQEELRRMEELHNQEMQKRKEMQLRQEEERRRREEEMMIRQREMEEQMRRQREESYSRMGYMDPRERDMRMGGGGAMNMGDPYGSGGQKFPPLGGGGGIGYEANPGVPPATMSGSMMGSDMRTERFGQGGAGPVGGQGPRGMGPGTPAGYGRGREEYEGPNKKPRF

[19] = target: Lupus La protein (Homo sapiens) (UniProt P05455)
[20] = target: Tryptophan--tRNA ligase, cytoplasmic (Homo sapiens) (UniProt P23381)
Tryptophan--tRNA ligase, cytoplasmic (Homo sapiens), sequence (P23381 whole entry): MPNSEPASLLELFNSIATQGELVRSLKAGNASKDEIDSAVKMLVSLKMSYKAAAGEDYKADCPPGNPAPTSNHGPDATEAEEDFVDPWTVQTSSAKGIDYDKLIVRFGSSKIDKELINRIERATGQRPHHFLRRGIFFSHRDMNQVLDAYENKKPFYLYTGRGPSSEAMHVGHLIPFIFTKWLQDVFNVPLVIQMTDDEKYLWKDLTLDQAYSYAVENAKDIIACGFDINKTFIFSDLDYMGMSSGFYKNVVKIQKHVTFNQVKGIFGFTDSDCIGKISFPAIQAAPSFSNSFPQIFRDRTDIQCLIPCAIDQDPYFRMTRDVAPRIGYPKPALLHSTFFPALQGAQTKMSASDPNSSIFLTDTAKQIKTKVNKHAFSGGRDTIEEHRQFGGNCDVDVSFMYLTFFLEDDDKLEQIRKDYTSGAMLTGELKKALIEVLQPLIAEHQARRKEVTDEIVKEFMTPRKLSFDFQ

[21] = target: CDK5 and ABL1 enzyme substrate 1 (Homo sapiens) (UniProt Q8TDN4)
[22] = target: Protein S100-A11 (Homo sapiens) (UniProt P31949)
[23] = target: Mitogen-activated protein kinase kinase kinase 6 (Homo sapiens) (UniProt O95382)
[24] = target: Asparagine--tRNA ligase, cytoplasmic (Homo sapiens) (UniProt O43776)
[25] = target: Carbamoyl-phosphate synthase [ammonia], mitochondrial (Homo sapiens) (UniProt P31327)
[26] = target: Acetyl-CoA carboxylase 1 (Homo sapiens) (UniProt Q13085)
[27] = target: Small ribosomal subunit protein uS17 (Homo sapiens) (UniProt P62280)
[28] = target: 5'-AMP-activated protein kinase catalytic subunit alpha-1 (Homo sapiens) (UniProt Q13131)
[29] = target: Cleavage and polyadenylation specificity factor subunit 6 (Homo sapiens) (UniProt Q16630)
[30] = target: X-ray repair cross-complementing protein 6 (Homo sapiens) (UniProt P12956)
X-ray repair cross-complementing protein 6 (Homo sapiens), sequence (P12956 whole entry): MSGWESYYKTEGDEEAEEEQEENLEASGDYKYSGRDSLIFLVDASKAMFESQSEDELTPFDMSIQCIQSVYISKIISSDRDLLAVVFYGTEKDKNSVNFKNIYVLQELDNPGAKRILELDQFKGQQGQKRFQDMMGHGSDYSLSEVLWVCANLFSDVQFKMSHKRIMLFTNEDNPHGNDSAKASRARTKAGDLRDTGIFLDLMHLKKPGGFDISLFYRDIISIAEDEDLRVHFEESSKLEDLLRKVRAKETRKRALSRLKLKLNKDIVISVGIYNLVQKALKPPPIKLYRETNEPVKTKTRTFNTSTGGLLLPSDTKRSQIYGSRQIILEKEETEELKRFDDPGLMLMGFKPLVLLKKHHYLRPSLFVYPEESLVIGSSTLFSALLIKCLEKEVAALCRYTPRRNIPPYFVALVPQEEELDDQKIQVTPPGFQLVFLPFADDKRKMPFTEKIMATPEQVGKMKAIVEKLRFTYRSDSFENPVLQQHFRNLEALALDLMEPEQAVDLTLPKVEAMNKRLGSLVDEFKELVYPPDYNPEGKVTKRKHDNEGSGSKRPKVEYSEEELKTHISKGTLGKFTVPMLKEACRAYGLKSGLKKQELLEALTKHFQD

[31] = target: ATP-dependent 6-phosphofructokinase, platelet type (Homo sapiens) (UniProt Q01813)
[32] = target: Multifunctional protein CAD (Homo sapiens) (UniProt P27708)
[33] = target: Exportin-T (Homo sapiens) (UniProt O43592)
Cofilin-1 (Homo sapiens) = Cofilin-1 (Homo sapiens) (UniProt P23528)
[34] = target: Centromere/kinetochore protein zw10 homolog (Homo sapiens) (UniProt O43264)
[35] = target: Calcium/calmodulin-dependent protein kinase type II subunit beta (Homo sapiens) (UniProt Q13554)
[36] = target: Fanconi anemia group D2 protein (Homo sapiens) (UniProt Q9BXW9)
[37] = target: Protein mono-ADP-ribosyltransferase PARP16 (Homo sapiens) (UniProt Q8N5Y8)
[38] = target: Triosephosphate isomerase (Homo sapiens) (UniProt P60174)
[39] = target: Large ribosomal subunit protein P1 (Homo sapiens) (UniProt P05386)
Large ribosomal subunit protein P1 (Homo sapiens), sequence (P05386 whole entry): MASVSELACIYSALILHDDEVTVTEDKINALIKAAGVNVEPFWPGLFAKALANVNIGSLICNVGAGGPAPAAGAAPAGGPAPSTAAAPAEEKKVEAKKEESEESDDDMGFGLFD

[40] = target: DNA topoisomerase 1 (Homo sapiens) (UniProt P11387)
[41] = target: Lysine--tRNA ligase (Homo sapiens) (UniProt Q15046)
[42] = target: Cyclin-dependent kinase 17 (Homo sapiens) (UniProt Q00537)
[43] = target: Casein kinase II subunit alpha' (Homo sapiens) (UniProt P19784)
[44] = target: Mitogen-activated protein kinase 9 (Homo sapiens) (UniProt P45984)
Note: assay method not described here.

AP-1 complex subunit mu-1 (Homo sapiens), sequence (Q9BXS5 whole entry, one chain of several): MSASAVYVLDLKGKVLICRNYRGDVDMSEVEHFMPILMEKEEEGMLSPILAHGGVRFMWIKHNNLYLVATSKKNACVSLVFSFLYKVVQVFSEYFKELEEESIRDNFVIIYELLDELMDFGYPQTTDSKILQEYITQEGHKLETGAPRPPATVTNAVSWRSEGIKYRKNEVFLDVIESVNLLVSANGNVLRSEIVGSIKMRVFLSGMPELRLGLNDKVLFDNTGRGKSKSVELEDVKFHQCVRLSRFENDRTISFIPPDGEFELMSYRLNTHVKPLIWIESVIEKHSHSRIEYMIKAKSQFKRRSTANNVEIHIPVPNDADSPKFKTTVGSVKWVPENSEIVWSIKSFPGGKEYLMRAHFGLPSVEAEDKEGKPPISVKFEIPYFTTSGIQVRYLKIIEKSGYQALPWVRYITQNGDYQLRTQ

## Cc1ccc(C(=O)Nc2cccc(C(F)(F)F)c2)cc1Nc1nc(-c2cccnc2)nc2c1cnn2C
[1]
  ED50: 0.0279 µM
[2]
  ED50: 5.07 µM
Septin-7 (Homo sapiens)
  ED50: 3.34 µM
[3]
  ED50: 0.0552 µM
[4]
  ED50: 1 µM
[5]
  ED50: 4.85 µM
[6]
  ED50: 5.41 µM
[7]
  ED50: 11.1 µM
[8]
  ED50: 0.0198 µM
[9]
  ED50: 13.9 µM
[10]
  ED50: 3.12 µM
[11]
  ED50: 4.03 µM
[12]
  ED50: 1700 µM
[13]
  ED50: 4.09 µM
[14]
  ED50: 0.0234 µM
[15]
  ED50: 0.127 µM
[16]
  ED50: 2.26 µM
[17]
  ED50: 6290 µM
[18]
  ED50: 6.39 µM
[19]
  ED50: 1.94 µM
[20]
  ED50: 0.0163 µM
[21]
  ED50: 0.993 µM
[22]
  ED50: 3.06 µM
[23]
  ED50: 1.26 µM
[24]
  ED50: 0.0284 µM
[25]
  ED50: 11.8 µM
[26]
  ED50: 16.4 µM
Homo sapiens
  ED50: 3.03 µM
[27]
  ED50: 0.0251 µM
[28]
  ED50: 13.2 µM
[29]
  ED50: 15 µM
[30]
  ED50: 0.0358 µM
[31]
  ED50: 9.49 µM
[32]
  ED50: 0.00265 µM
[33]
  ED50: 1.22 µM
Cofilin-1 (Homo sapiens)
  ED50: 7.3 µM
[34]
  ED50: 2.9 µM
[35]
  ED50: 17.4 µM
[36]
  ED50: 1.96 µM
[37]
  ED50: 0.0016 µM
[38]
  ED50: 0.183 µM
[39]
  ED50: 0.0125 µM
[40]
  ED50: 0.0425 µM
[41]
  ED50: 0.758 µM
[42]
  ED50: 13.1 µM
[43]
  ED50: 3.31 µM
[44]
  ED50: 0.0588 µM

## Cc1ccc(C(=O)Nc2cccc(C(F)(F)F)c2)cc1Nc1nc(-c2cccnc2)nc2nn(C)cc12
[1]
  ED50: 0.13 µM
[2]
  ED50: 0.0706 µM
Septin-7 (Homo sapiens)
  ED50: 3.21 µM
[3]
  ED50: 0.0914 µM
[4]
  ED50: 18.2 µM
[5]
  ED50: 43 µM
[6]
  ED50: 2.4 µM
[7]
  ED50: 19.9 µM
[8]
  ED50: 0.0533 µM
[9]
  ED50: 6.08 µM
[10]
  ED50: 18.3 µM
[11]
  ED50: 12.5 µM
[12]
  ED50: 58.7 µM
[13]
  ED50: 0.0188 µM
[14]
  ED50: 0.082 µM
[15]
  ED50: 0.652 µM
[16]
  ED50: 1.17 µM
[17]
  ED50: 60.4 µM
[18]
  ED50: 15 µM
[19]
  ED50: 0.0279 µM
[20]
  ED50: 29.9 µM
[21]
  ED50: 0.175 µM
[22]
  ED50: 30.9 µM
[23]
  ED50: 8.27 µM
[24]
  ED50: 5.57 µM
[25]
  ED50: 0.188 µM
[26]
  ED50: 0.0486 µM
Homo sapiens
  ED50: 7.5 µM
[27]
  ED50: 0.0189 µM
[28]
  ED50: 0.0591 µM
[29]
  ED50: 0.349 µM
[30]
  ED50: 0.0567 µM
[31]
  ED50: 0.00571 µM
[32]
  ED50: 0.00448 µM
[33]
  ED50: 0.0299 µM
Cofilin-1 (Homo sapiens)
  ED50: 0.0624 µM
[34]
  ED50: 0.0544 µM
[35]
  ED50: 0.0059 µM
[36]
  ED50: 2.28 µM
[37]
  ED50: 22200 µM
[38]
  ED50: 0.0625 µM
[39]
  ED50: 16600 µM
[40]
  ED50: 0.00653 µM
[41]
  ED50: 1.77 µM
[42]
  ED50: 0.121 µM
[43]
  ED50: 110 µM
[44]
  ED50: 13.7 µM
